Data from US10328141B2, “Synthetic vaccines against Streptococcus pneumoniae type 1” (MAX-PLANCK-GESELLSCHAFT ZUR FÖRDERUNG DER WISSENSCHAFTEN …, priority 2013, dated 2019).

Legend:
[1] = test system: rabbit anti-Streptococcus pneumoniae type 1 typing serum; experiment: Glycan microarray binding of rabbit anti-SP1 typing serum to immobilised saccharides; details: saccharides coated on modified GAPS II or CodeLink NHS slides; FIGS. 6-8
Description: (§1) Microarray slides coated with the saccharides of general formula (I) were synthesized by conjugating the saccharides of general formula (I) to said modified microarray slides, and incubated with rabbit anti-Streptococcus pneumoniae type 1 typing serum […] in the presence or absence of native Streptococcus pneumoniae type 1 polysaccharide.
Maleimide-functionalized microarrays were produced by submerging amine-coated slides (GAPS II slides, Corning) in 6-maleimidohexanoic acid N-hydroxysuccinimide ester (2 mM) in dry DMF with diisopropylethylamine (2.5% v/v) for 24 h at room temperature. Slides were washed three times with water and three times with ethanol, centrifuged to dryness, and stored under argon until spotting. Diluted saccharides of general formula (I) were printed onto the modified microarray slides at 0.4 nL per spot by an automatic piezoelectric arraying robot (Scienion, Berlin, Germany). For completion of the immobilization reaction, printed slides were stored for 24 h in a humidified chamber.
Microarray slides were washed three times with water. Unreacted maleimide was quenched by submerging the slides in β-mercaptoethanol (0.1%, v/v) in PBS for 1 h at room temperature. Slides were washed three times with water and with ethanol, centrifuged to dryness, and blocked with BSA (1%, w/v) in PBS for 1 h at room temperature. […]

[2] = test system: human pneumococcal serum 007sp; experiment: Glycan microarray binding of human pneumococcal reference serum 007sp to immobilised saccharides; details: saccharides coated on modified CodeLink NHS slides; pooled sera of 287 humans immunized with Pneumovax; FIG. 5
Description: as §1
[…] Slides were washed three times with water and three times with ethanol, centrifuged to dryness, and stored under argon until spotting. Diluted saccharides of general formula (I) were printed onto the modified microarray slides at 0.4 nL per spot by an automatic piezoelectric arraying robot (Scienion, Berlin, Germany). For completion of the immobilization reaction, printed slides were stored for 24 h in a humidified chamber.
Microarray slides were washed three times with water. Unreacted maleimide was quenched by submerging the slides in β-mercaptoethanol (0.1%, v/v) in PBS for 1 h at room temperature. Slides were washed three times with water and with ethanol, centrifuged to dryness, and blocked with BSA (1%, w/v) in PBS for 1 h at room temperature. Blocked slides were washed (2×PBS, 3×water), centrifuged, and incubated with the sera dilutions.
CodeLink NHS slides were incubated for 24 h (1% w/v in PBS) at 4° C. […]

SMILES	binding of rabbit anti-Streptococcus pneumoniae type 1 typing serum to saccharide structure on microarray slides [1]	binding of human pneumococcal serum 007sp to saccharide structure on microarray slides [2]
CC(=O)N[C@H]1[C@@H](O[C@@H]2[C@H](O)[C@@H](O)[C@@H](O[C@H]3[C@@H](O)[C@@H](C(=O)O)O[C@H](O)[C@@H]3O)O[C@@H]2C(=O)O)O[C@H](C)[C@H](N)[C@@H]1O [α-2,4,6-trideoxy-4-amino-D-GalNAc-(1→4)-α-D-GalAp-(1→3)-α-D-GalAp]	bound	bound
O=C(O)[C@H]1O[C@H](O[C@H]2[C@@H](O)[C@@H](C(=O)O)O[C@H](O)[C@@H]2O)[C@H](O)[C@@H](O)[C@H]1O [α-D-GalAp-(1→3)-α-D-GalAp]	bound	bound
